We go through 6 molecules from ChEMBL document CHEMBL1155566, “Antifeedant activity of withanolides from Salpichroa origanifolia on Musca domestica” (J Nat Prod, 2000).

Calls of active or inactive are those of the source. The rule behind the calls is not given here.

Experiment [1] concerns Musca domestica. The experiment is described as follows: Antifeedant activity against Musca domestica CIPEIN larvae assessed as time needed to pupate 50% at 500 ppm. The experiment is classed as functional.
In experiment [2] the test system is Musca domestica. The experiment is described as follows: Antifeedant activity against Musca domestica CIPEIN larvae supplied with high yeast and milk concentration assessed as time needed to pupate 50%. The experiment is classed as functional.
The test system of experiment [3] is Musca domestica. The experiment is described as follows: Antifeedant activity against Musca domestica CIPEIN larvae supplied with medium yeast and milk concentration assessed as time needed to pupate 50%. It counts as functional.
Experiment [4] concerns Musca domestica. The experiment is described as follows: Antifeedant activity against Musca domestica CIPEIN larvae assessed as larval mortality at 200 ppm after 18 days. It counts as functional.
For experiment [5], the system named is Musca domestica. The experiment is described as follows: Antifeedant activity in Musca domestica CIPEIN larvae assessed as time needed to pupate 50% at 100 ppm. The experiment is classed as functional.
For experiment [6], the system named is Musca domestica. The experiment is described as follows: Antifeedant activity against Musca domestica CIPEIN larvae assessed as inhibition of larvae development after 18 days. The experiment is classed as functional, organism-based.

`C[C@@H](c1ccc2c(c1)CC[C@H]1[C@H]2CC(=O)[C@@]2(O)CC=CC(=O)[C@]12C)[C@@H]1C[C@@H]2O[C@@H]2C(=O)O1`: the result with Musca domestica [1] was inactive.

With `C[C@@H](c1ccc2c(c1)CC[C@H]1[C@H]2C[C@@H]2O[C@@]23CC=CC(=O)[C@]13C)[C@@H]1C[C@@H]2O[C@@H]2[C@H](O)O1` [SALPICHROLIDE A], the Activity worked out at 10.3 days with Musca domestica [1]; 6.9 days in the experiment on Musca domestica [2]; 12.2 days in the experiment on Musca domestica [3]; 100% in the experiment on Musca domestica [4]; 7.9 days in the experiment on Musca domestica [5]. The EC50 in the experiment on Musca domestica [6] amounted to 290 ppm.

`CC(=O)Oc1cc([C@H](C)[C@@H]2C[C@@H]3O[C@@H]3[C@H](OC(C)=O)O2)cc2c1[C@@H]1C[C@@H]3O[C@@]34CC=CC(=O)[C@]4(C)[C@H]1CC2`: the outcome in the experiment on Musca domestica [1] was Active.

For the molecule `C[C@@H](c1ccc2c(c1)CC[C@H]1[C@H]2C[C@@H]2O[C@@]23CC=CC(=O)[C@]13C)[C@@H]1C[C@@H]2O[C@@H]2C(=O)O1`, the outcome with Musca domestica [1] was inactive.

Take `C[C@@H](c1cc(O)c2c(c1)CC[C@H]1[C@H]2C[C@@H]2O[C@@]23CC=CC(=O)[C@]13C)[C@@H]1C[C@@H]2O[C@@H]2[C@H](O)O1` [SALPICHROLIDE G]: the Activity came to 8 days in the experiment on Musca domestica [1], 100% in the experiment on Musca domestica [4] and 7.7 days in the experiment with Musca domestica [5]. Further, the EC50 in the experiment on Musca domestica [6] was 203 ppm.

In the case of `C[C@@H](c1ccc2c(c1)CC[C@H]1[C@H]2C[C@@H](O)[C@@]2(O)CC=CC(=O)[C@]12C)[C@@H]1C[C@@H]2O[C@@H]2[C@H](O)O1` [SALPICHROLIDE C], the Activity in the experiment with Musca domestica [1] amounted to 8.1 days; in the experiment on Musca domestica [4], 100%; with Musca domestica [5], 7.8 days. Further, the EC50 in the experiment on Musca domestica [6] is reported as 310 ppm.
